# Measured values from US11597739B2, “Enhancing CD8+ T cells for adoptive T cell therapy by inhibiting PTPN1 (PTP1B) and PTPN2 (TC-PTP)” (The Royal Institution for the Advancement of …, priority 2017, dated 2023).
# Tested on: OVA expressing EG.7 lymphoma target cells
# Test: Calcein-release cytotoxicity assay of OT-1 CTLs
# Format: cell-based, mouse
# Details: OT-1 CD8 cells activated with inhibitor at 50 μM; 5 hours; every effector to target ratio; versus untreated, K882 or K885
# Method: 9) Cytotoxicity Experiments
# 3 days before the experiment thaw a new vial of EG.7 cells. After 24 h in culture, the cells are resuspended at 5×10^4 and 100 U/ml of IFN-γ is added. The day of the experiment, the EG.7 cells are harvested, washed once with HBSS. The EG.7 cells are resuspended at 10^6/ml in HBSS and 10 μM Calcein-AM added. The cells are incubated at 37° C. for 1 hr in the dark, washed twice with complete RPMI and counted. They are then resuspend at 3×10^5/ml.
# The following wells from a 0.75×10^6/ml suspension of the CD8 (Effector) cells to have different effector to target ratios are prepared in duplicate. Before plating the effector cells, RPMI complete is added, 50 μl to the 5:1 ratio wells and 90 μl to the 1:1 ratio wells. • 75×10^3 (100 μl) 25:1 ratio. • Dilute the suspension 1:2.5 volumes: • 30×10^3 (100 μl) 10:1 ratio. • 15×10^3 (50 μl) 5:1 ratio. • 3×10^3 (10 μl) 1:1 ratio. • Prepare at least 2 wells with 100 μl of RPMI complete.
# 100 μl of EG.7 (Target) cells is added and spin at 400×g for 2 minutes, RT. […]
# For Controls: Background fluorescence (BF): Harvest 100 μl supernatant from control wells. Absolut fluorescence (AF): Add 100 μl of methanol to the control wells harvested for background. […]
# Calculate the specific cell lysis as follows: Specific cell lysis=((Sample−BF)/(AF−BF))×100 10) Flow Cytometry 1. […] Record cell quantity transfers per tube; • b. […]
compound,measurement,value
"CCOC(=O)c1cc2cc(C(F)(F)P(=O)(O)O)c(Br)cc2s1 [Ex. 1, ((6-BROMO-2-(ETHOXYCARBONYL)BENZO[B]THIOPHEN-5-YL)DIFLUOROMETHYL)PHOSPHONATE]",specific cytotoxicity (lysis of EG.7 cells),lysed EG.7 cells with greater efficiency
